Measurements published in patent publication US12076330B2, “Inhibition of lipofuscin aggregation by molecular tweezers” (The Regents of the University of California, priority 2018, dated 2024).
“Also recorded” adds a separate entry of the source.

Tests used:
Format in all cases: cell-based, human
[1] = test system: lysosomes (LAMP-1) in ARPE-19 cells; experiment: Confocal imaging of lipofuscin A2E and LAMP-1 in ARPE-19 cells
Procedure: (§1) Panel A) CLR01 in PBS and lipofuscin A2E were added to the cells at the indicated times. Cells were incubated up to 6 h in all cases and were imaged using a fluorescence microscope for visualization of lipofuscin autofluorecence (red) and cell nuclei (DAPI, blue). Panel B) Quantification of the data shown in panel A (N=15 per condition). C) Confocal microscopy images showing that lipofuscin colocalizes with the Lysosomal-membrane marker lamp1.

[2] = test system: pre-formed lipofuscin (A2E) aggregates in ARPE-19 cells; experiment: Effect on pre-formed lipofuscin aggregates in ARPE-19 cells (A2E 10 h, wash, CLR01 12 h); conditions: A2E 100 μM for 10 h, CLR01 100 μM for 12 h
Procedure: FIG. 2, panel A) CLR01 in PBS and lipofuscin A2E were added to the cells at the indicated times. Cells were incubated up to 22 hours in all cases and were imaged using a fluorescence microscope for visualization of lipofuscin autofluorecence (red) and cell nuclei (DAPI, blue). FIG. 2, panel B) Quantification of the data shown in […] (N=15 per condition). Condition 1—negative control—20 μl of DMSO was added to the cells at t=0. After 10 h, the media was removed, the cells were washed with F12 medium, and new media was added. Condition 2—positive control—Lipofuscin A2E in DMSO at final concentration of 100 μM was added to the cells at t=0. After 10 h, the media was removed, the cells were washed with F12 medium, and new media was added. Condition 3—Lipofuscin A2E in DMSO was added to the cells at t=0. After 10 h, the media was removed, the cells were washed with F12 medium, and new media was added. CLR01 in PBS at final concentration of 100 μM was added at t=10 h.
The effect of CLR01 on pre-formed lipofuscin aggregates was tested as well. Human, ARPE-19 cells were treated with lipofuscin (A2E) for 10 h (to let lipofuscin aggregates form). Upon washing the cells to remove A2E from the media, CLR01 was added to the medium for an additional period of 12 h. Cells were then imaged by fluorescence microscopy and fluorescence quantified (FIG. 2). […]

[3] = test system: lipofuscin (A2E) aggregation in ARPE-19 cells (retinal pigmented epithelium); experiment: Lipofuscin A2E accumulation/aggregation in ARPE-19 cells, fluorescence microscopy after 6 h
Procedure: as §1
To test the effect of CLR01 on lipofuscin aggregation, human, ARPE-19 cells (retinal pigmented epithelium; RPE) were treated with lipofuscin (A2E) in the absence or presence of CLR01 and imaged by fluorescence microscopy at the end of 6 h of incubation (FIG. 1, panel A), as follows: • Condition 1—negative control—20 μl of PBS was added to the cells at t=0 and 20 μl of DMSO at t=1.5 h. • Condition 2—safety control—CLR01 in PBS at final concentration of 100 μM was added to the cells at t=0 and DMSO at t=1.5 h. • Condition 3—positive control—PBS was added to the cells at t=0 and lipofuscin A2E in DMSO at final concentration of 100 μM at t=1.5 h. Lipofuscin A2E is a specific type of lipofuscin enriched in N-retinylidene-N-retinylethanolamine (A2E), which is derived from 11-cis-retinal and accumulates in the retinal pigmented epithelium (Boyer et al. (2012) J. Biol. Chem. 287: 22276-22286). • Condition 4—CLR01 in PBS at final concentration of 100 μM was added to the cells at t=0, after 1.5 h, the media was removed, the cells were washed with F12 medium, and new media was added. Lipofuscin A2E in DMSO at final concentration of 100 μM was added at t=1.5 h. • Condition 5—Lipofuscin A2E in DMSO was added to the cells at t=0 and CLR01 in PBS at final concentration of 100 μM was added at t=1 h.

## CLR01
[1]
  lysosome integrity: lysosome integrity was not affected
[2]
  clearing effect compared with condition 5 of FIG. 1 (CLR01 added simultaneously with lipofuscin loading): lower
[3]; ARPE-19 retinal cells, CLR01 100 μM, lipofuscin A2E 100 μM
  inhibition of lipofuscin accumulation and aggregation (overall finding): inhibits lipofuscin accumulation and aggregation; also recorded: powerfully inhibits the formation of lipofuscin aggregates
[3]; condition 2: CLR01 100 μM at t=0, DMSO at t=1.5 h, no A2E, ARPE-19 cells, 6 h
  harm to the cells (safety control): did not harm the cells
[3]; condition 4: CLR01 100 μM at t=0, washed out after 1.5 h, then lipofuscin A2E 100 μM, ARPE-19 cells, 6 h
  reduction of the accumulation of lipofuscin aggregates at 6 h: ~60%
[3]; condition 5: lipofuscin A2E at t=0, CLR01 100 μM added at t=1 h, ARPE-19 cells, 6 h
  accumulation of lipofuscin aggregates: reduced almost to the negative-control level
